Values of other authors, collected in patent publication US7968511B2, “Combination therapy with glatiramer acetate and mitoxantrone for the treatment of multiple sclerosis” (Teva Pharmaceutical Industries, Ltd., priority 2003, dated 2011).

Test system: multiple sclerosis (MS)
Settings: daily subcutaneous injections, 20 mg/injection

L-glutamic acid polymer with L-alanine, L-lysine and L-tyrosine, acetate (salt) [glatiramer acetate]
reduce: appearance of "black holes" | appearance of new lesions by magnetic resonance imaging (MRI) | progression of disability | relapse rates
